In patent publication US12404232B2, “Compounds and compositions for intracellular delivery of therapeutic agents” (ModernaTX, Inc., priority 2015, dated 2025):

Tests used:
mice [1] = assay: Cytokine induction (IL-6, IP-10) in mice after intravenous administration; type: in vivo; set-up: IL-6 / IP-10: unit not given here; details: 0.5 mpk, 6 hours
From the text: The introduction of foreign material into a mammalian body induces an innate immune response that promotes cytokine production. Such immune responses to, for example, nanoparticle compositions including therapeutic and/or prophylactics, are undesirable. The induction of certain cytokines is thus measured to evaluate the […] of nanoparticle compositions. The concentrations of various cytokines in mice upon intravenous administration of nanoparticle compositions presented in Table 1A at a dosage of 0.5 mpk was measured at 6 hours. The standard MC3 formulation and a PBS control were also tested. As is evident in Table 7, IL-6 induction was highest for compositions including Compounds 1, 3, 9, 19, and 26, while IP-10 induction was highest for compositions including Compounds 3, 4, 7, 20, and 26. IL-6 induction was lowest for compositions including Compounds 4, 11, 12, and 28. IP-10 induction was lowest for compositions including Compounds 10, 11, 12, 13, 15, 17, and 18.
The expression of hEPO and cytokine induction in mice intravenously administered a nanoparticle composition at a dose of 0.5 mpk were measured at 3, 6, and 24 hours. […] The expression of hEPO in mice intramuscularly administered a nanoparticle composition from Table 1B at a dose of 0.01 mpk were measured at 3, 6, and 24 hours. […] (see also FIG. 9.)

mice [2] = assay: Luc expression (total flux) after intramuscular administration; type: in vivo; details: 6 hours after intramuscular administration, Luc mRNA and H10 mRNA
Description: The numbers 1-7 in this figure correspond to MC3, Compounds 168-170, and 173-175 respectively.
In order to monitor how effectively various nanoparticle compositions deliver therapeutic and/or prophylactics to targeted cells, different nanoparticle compositions including a particular therapeutic and/or prophylactic (for example, a modified or naturally occurring RNA such as an mRNA) are prepared and administered to rodent populations. Mice are intravenously, intramuscularly, intraarterially, or intratumorally administered a single dose including a nanoparticle composition with a formulation such as those provided in Example 3. In some instances, mice may be made to inhale doses. Dose sizes may range from 0.001 mg/kg to 10 mg/kg, where 10 mg/kg describes a dose including 10 mg of a therapeutic and/or prophylactic in a nanoparticle composition for each 1 kg of body mass of the mouse. A control composition including PBS may also be employed.
The total flux (measured by area under the curve, AUC) induced by administration of a formulation including a given lipid relative to that induced by administration of a formulation including MC3 was also measured for several lipids.
Sample formulations including both modified luciferase (Luc) mRNA and H10 mRNA were prepared and administered intramuscularly and the resulting expression and immunogenicity were evaluated simultaneously. Formulations including compounds according to Formula (I), (IA), (II), (IIa), (IIb), (IIc), (IId) or (IIe) were prepared and administered at doses of 0.001 and 0.01 mpk (e.g., doses of 0.0005 mpk of a formulation including Luc mRNA and a formulation including H10 mRNA or doses of 0.005 mpk of a formulation including Luc mRNA and a formulation including H10 mRNA).
Sample formulations including modified luciferase (Luc) mRNA prepared and administered intramuscularly and the resulting expression and immunogenicity were evaluated simultaneously. Formulations including compounds according to Formula (I), (IA), (II), (IIa), (IIb), (IIc), (IId) or (IIe) were prepared and administered at dose of […] 0.01 mpk.
The fluxes measured upon intravenous and intramuscular administration are compared in Table 6. Fluxes are presented as fold increase over that measured for MC3 formulations.

SMILES	IP-10 (mice [1])	Total flux (p/s) 0.001 mpk Dose (mice [2])	Total flux (p/s) 0.01 mpk Dose (mice [2])	IL-6 (mice [1])
CCCCCCCCCCCCCCCCCCN(CCO)CCCCCCCC(=O)OC(CCCCCCCC)CCCCCCCC [Compound 1, Heptadecan-9-yl 8-((2-hydroxyethyl)(octadecyl)amino)octanoate]	687.14	–	–	–
CCCCCCCCCCCCCCN(CCO)CCCCCCCC(=O)OC(CCCCCCCC)CCCCCCCC [Compound 2, Heptadecan-9-yl 8-((2-hydroxyethyl)(tetradecyl)amino)octanoate]	468.86	3.55E+06 p/s	6.16E+07 p/s	70.95
CCCCCCCCC(CCCCCCCC)OC(=O)CCCCCCCN(CCO)CCCCCC [Compound 5, Heptadecan-9-yl 8-(hexyl(2-hydroxyethyl)amino)octanoate]	487.16	9.84E+05 p/s	3.55E+06 p/s	94.07
CCCCCCCCCN(CCCO)CCCCCCCC(=O)OC(CCCCCCCC)CCCCCCCC [Compound 7, Heptadecan-9-yl 8-((3-hydroxypropyl)(nonyl)amino)octanoate]	–	3.65E+06 p/s	7.48E+07 p/s	116.35
CCCCCCCCCN(CCCCCCCC(=O)OC(CCCCCCCC)CCCCCCCC)CCCn1ccnc1 [Compound 8, Heptadecan-9-yl 8-((3-(1H-imidazol-1-yl)propyl)(nonyl)amino)octanoate]	–	7.81E+05 p/s	3.32E+06 p/s	–
CCCCCCCCCOC(=O)CCCCCCCN(CCCCCCCC(=O)OC(CCCCCCCC)CCCCCCCC)CCOC(C)=O [Compound 9, Heptadecan-9-yl 8-((2-acetoxyethyl)(8-(nonyloxy)-8-oxooctyl)amino) octanoate]	366.53	–	–	–
CCCCCCCCCOC(=O)CCCCCCCN(CCCCCCCC(=O)OC(CCCCCCCC)CCCCCCCC)CC(C)O (stereo not drawn) [Compound 10, Heptadecan-9-yl 8-((2-hydroxypropyl)(8-(nonyloxy)-8-oxooctyl)amino) octanoate]	–	–	–	88.81
CCCCCCCCCOC(=O)CCCCCCCN(CCCCCCCC(=O)OC(CCCCCCCC)CCCCCCCC)C[C@H](C)O [Compound 12, Heptadecan-9-yl (S)-8-((2-hydroxypropyl)(8-(nonyloxy)-8-oxooctyl)amino)octanoate]	–	8.02E+04 p/s	8.90E+05 p/s	–
CCCCCCCCCOC(=O)CCCCCCCN(CCCCCCCC(=O)OC(CCCCCCCC)CCCCCCCC)CC(O)CC (stereo not drawn) [Compound 13, Heptadecan-9-yl 8-((2-hydroxybutyl)(8-(nonyloxy)-8-oxooctyl)amino) octanoate]	–	–	–	29.07
CCCCCCCCCOC(=O)CCCCCCCN(CCCCCCCC(=O)OC(CCCCCCCC)CCCCCCCC)CCN(C)C [Compound 14, Heptadecan-9-yl 8-((2-(dimethylamino)ethyl)(8-(nonyloxy)-8-oxooctyl)amino)octanoate]	621.49	–	–	75.29
CCCCCCCCCOC(=O)CCCCCCCN(CCCCCCCC(=O)OC(CCCCCCCC)CCCCCCCC)CCOC [Compound 15, Heptadecan-9-yl 8-((2-methoxyethyl)(8-(nonyloxy)-8-oxooctyl)amino)octanoate]	–	–	–	64.65
CCCCCCCCCOC(=O)CCCCCCCN(CCCCCCCC(=O)OC(CCCCCCCC)CCCCCCCC)CCCOC [Compound 16, Heptadecan-9-yl 8-((3-methoxypropyl)(8-(nonyloxy)-8-oxooctyl)amino) octanoate]	206.75	–	–	32.01
CCCCCCCCCOC(=O)CCCCCCCN(CCCCCCCC(=O)OC(CCCCCCCC)CCCCCCCC)CCOCCN(C)C [Compound 17, Heptadecan-9-yl 8-((2-(2-(dimethylamino)ethoxy)ethyl) (8-(nonyloxy)-8-oxooctyl)amino)octanoate]	–	–	–	138.43
CCCCCCCCCOC(=O)CCCCCCCN(CCCO)CCCCCCCC(=O)OC(CCCCCCCC)CCCCCCCC [Compound 19, Heptadecan-9-yl 8-((3-hydroxypropyl)(8-(nonyloxy)-8-oxooctyl)amino) octanoate]	1468.94	3.28E+06 p/s	2.96E+07 p/s	–
CCCCCCCCCOC(=O)CCCCCCCN(CCCCCCCC(=O)OC(CCCCCCCC)CCCCCCCC)C1CCCCC1O (stereo not drawn) [Compound 22, Heptadecan-9-yl 8-((2-hydroxycyclohexyl)(8-(nonyloxy)-8-oxooctyl)amino)octanoate]	976.50	–	–	90.54
CCCCCCCCCOC(=O)CCCCCCCN(CCO)CCCCCCCCCC(=O)OC(CCCCCCCC)CCCCCCCC [Compound 23, Heptadecan-9-yl 10-((2-hydroxyethyl)(8-(nonyloxy)-8-oxooctyl)amino) decanoate]	1015.95	8.27E+06 p/s	2.20E+06 p/s	94.00
CCCCCCCCCOC(=O)CCCCCCCN(CCO)CCCCCC(=O)OC(CCCCCCCC)CCCCCCCC [Compound 27, Nonyl 8-((6-(heptadecan-9-yloxy)-6-oxohexyl)(2-hydroxyethyl)amino) octanoate]	345.56	2.55E+06 p/s	3.17E+07 p/s	161.07
CCCCCCCCC(CCCCCCCC)OC(=O)CCCCCCCN(CCO)CCCCCCCC(=O)OCC1CC1CCCCCC (stereo not drawn) [Compound 28, Heptadecan-9-yl 8-((8-((2-hexylcyclopropyl)methoxy)-8-oxooctyl)(2-hydroxyethyl)amino)octanoate]	283.13	6.73E+05 p/s	5.56E+06 p/s	–
CCCCCCCCC(CCCCCCCC)OC(=O)CCCCCCCN(CCO)CCCCCCCC(=O)OC(CCCCCCCC)CCCCCCCC [Compound 29, Di(heptadecan-9-yl) 8,8′-((2-hydroxyethyl)azanediyl)dioctanoate]	1362.81	7.64E+05 p/s	1.12E+07 p/s	69.54
CCCCCCCCCOC(=O)CCCCCCCN(CCO)CCCCCCCC(=O)OC(CCCCCC)CCCCCCCC (stereo not drawn) [Compound 32, nonyl 8-((2-hydroxyethyl)(8-oxo-8-(pentadecan-7-yloxy)octyl)amino) octanoate]	–	7.37E+05 p/s	1.03E+07 p/s	–
CCCCCCCCCOC(=O)CCCCCCCN(CCO)CCCCCCCC(=O)OC(CC)CCCCCCCC (stereo not drawn) [Compound 35, nonyl 8-((2-hydroxyethyl)(8-oxo-8-(undecan-3-yloxy)octyl)amino) octanoate]	–	2.45E+06 p/s	8.12E+06 p/s	–
CCCCCCCCCOC(=O)CCCCCCCN(CCO)CCCCCCCC(=O)OC(CCCC)CCCC [Compound 57, nonan-5-yl 8-((2-hydroxyethyl)(8-(nonyloxy)-8-oxooctyl)amino) octanoate]	–	1.16E+05 p/s	2.23E+05 p/s	–
CCCCC/C=C\C/C=C\CCCCCCCCN(CCO)CCCCCCCC(=O)OCCCCCCCCC [Compound 136, Nonyl 8-((2-hydroxyethyl)((9Z,12Z)-octadeca-9,12-dien-1-yl)amino)octanoate]	887.91	–	–	28.69
CCCCCC/C=C\COC(=O)CCCCCCCN(CCO)CCCCCCCC(=O)OC/C=C\CCCCCC [Compound 139, Di((Z)-non-2-en-1-yl) 8,8′-((2-hydroxyethyl)azanediyl)dioctanoate]	153.36	–	–	23.57
CCCCCCCCCCCOC(=O)CCCCCN(CCO)CCCCCC(=O)OCCCCCCCCCCC [Compound 141, Diundecyl 6,6′-((2-hydroxyethyl)azanediyl)dihexanoate]	1072.04	–	–	327.15
